From patent US20250339443A1, “METHOD FOR TREATING OR PREVENTING CALCIUM RELEASE-ACTIVATED CALCIUM CHANNEL OR DISCOIDIN DOMAIN RECEPTOR 2 RELATED DISORDERS OR CONDITIONS” (LumiSTAR Biotechnology, Inc., priority 2023, published 2025)

Assays:
[1] = test system: obstruction-induced persistent progression of renal fibrosis; assay: Reversible unilateral ureteral obstruction (RUUO) model; type: in vivo, mouse
Source text: FIG. 6A illustrates a diagram depicting the timeline of operations and drug delivery. The left ureter was surgically ligated (UUO-L) for 7 days, after which it was re-connected to the bladder (RUUO-L). Various compounds, including DMSO (control), WRG-28, and Av, were intraperitoneally injected daily during ureter ligation (UUO-L) period. After following RUUO-L for an additional 13 days, the right ureter was ligated (UUO-R). Subsequently, mice were housed in metabolic cages on the day after surgery (day 21). On day 22, the left kidneys were removed for further analysis to evaluate kidney function. […] FIG. 6C illustrates the measurement of the Sirius red-positive area in each group, conducted by using Image J from 5-10 images. The protein levels of integrin β1, collagen 1a1, DDR2, α-SMA, E-cadherin, SGLT2, NHE1, and β-actin were assessed in mice treated with WRG-28 (FIG. 6D) and Av (FIG. 6F) using Western blot analysis. Relative protein levels were quantified using Image J (FIG. 6E and FIG. 6G). Each bar represents mean±SEM. In all the graphs, *, **, and *** denote p-values of <0.05, 0.01, and 0.001, respectively.
The left ureter was surgically ligated (UUO-L) for 7 days, after which it was re-connected to the bladder (RUUO-L). Various compounds, including DMSO (control), WRG-28, and Av were intraperitoneally injected for 13 days after the release of left ureter ligation (during RUUO-L period). After 13 days of RUUO-L, the right ureter was ligated (UUO-R). Subsequently, the mice were housed in metabolic cages on the following day of surgery (day 21). On day 22, the left kidneys were removed for further analysis. […] FIG. 7C illustrates the measurement of the Sirius red-positive area in each group using Image J from 5-10 images. The protein levels of integrin β1, collagen 1a1, DDR2, […] were assessed in mice treated with WRG-28 (FIG. 7D) and Av (FIG. 7F) using Western blot analysis. The relative protein levels were measured and quantified using Image J (FIG. 7E and FIG. 7G). Each bar represents the mean±SEM. In all the graphs, *, **, and *** denote p-values of <0.05, 0.01, and 0.001, respectively. NS denotes a p-value >0.05, indicating no significant difference between the two groups.
FIG. 8A, FIG. 8B, FIG. 8C, FIG. 8D, FIG. 8E, FIG. 8F, FIG. 8G, and FIG. 8H illustrate how WRG-28 and Av restore epithelial differentiation and reduce collagen deposition and myofibroblast expansion in RUUO-induced persistent progression of renal fibrosis. The frozen tissue blocks were utilized for immunofluorescence staining. […] Laminin alpha 1 and collagen 1a1 were detected using primary antibodies, followed by secondary antibodies conjugated with Alexa-488 (green) and Alexa-594 (red), respectively. Hoechst 33258 (blue) was used for labeling nuclei. FIG. 8A-(ii) illustrates the fluorescent intensity of collagen 1a1 measured using Image J. Analysis was conducted on 5-10 areas from each of the 5 pictures, with each bar representing the mean±SEM. In FIG. 8A-(i), the thickness of laminin alpha 1 was measured using Image J by analyzing 5-10 areas from each of the 5-10 pictures. The median is marked by a solid line, while the quartiles are indicated by dotted lines. […] FIG. 8B-(iii) illustrates the fluorescent intensity of α-SMA, measured using Image J. Quantification was conducted on at least 5 areas from each of the 5 pictures, with each bar representing the mean±SEM. […] Additionally, Hoechst 33258 (blue) was used for labeling nuclei. FIG. 8C-(iv) illustrates the quantification of apical membrane expression of SGLT2 in SGLT2 positive cells for each condition. Analysis was conducted on at least 5 pictures from each condition, with each bar representing the mean±SEM. […] Hoechst 33258 (blue) was used to label nuclei. The expressions of DDR2 (FIG. 8D-(v)) and AQP1 (FIG. 8D-(vi)) were analyzed and quantified based on 5-8 pictures from each condition. Each bar in the figures represents the mean±SEM. […]

CRAC channel = CRAC channel (Homo sapiens, UniProt Q96D31); assay: CRAC channel activity / SOCE by Fura 2-AM cytosolic Ca2+ imaging in HEK293T cells; type: cell-based; parameters: endogenous in cells; host or cells: HEK293T; conditions: 10 μM, 1 μM thapsigargin then 2 mM Ca2+
Experimental: CRAC channel activity was evaluated by applying 1 μM thapsigargin (Thap.) in a calcium-free solution to deplete the endoplasmic reticulum calcium store, followed by the reintroduction of 2 mM Ca^2+ in an external solution. The concentration of cytosolic calcium ions increases as calcium flows through the CRAC channel, leading to the second peak in cytosolic calcium waves. […] Each bar represents the mean value derived from 47 to 103 cells. […] Each bar represents the mean value derived from 83 to 176 cells. […] Further analyses are presented in FIG. 1I and FIG. 1J, where the second peak of each wave and rate of entry were analyzed. Each bar represents the mean value derived from 72 to 108 cells. […] In all the graphs, each bar represents mean±SEM and *, **, and *** denote p-value <0.05, 0.01, and 0.001, respectively.
Cells were then washed and incubated with the same solution in addition to the supplement of Fura 2-AM for another 15 minutes for fully de-esterification. […] 1 μM thapsigargin was added to induce endoplasmic reticulum (ER) calcium store depletion followed by applying 2 mM calcium solution to assess the activation of calcium release-activated calcium (CRAC) channels. Cells were alternately excited at 340 and 380 nm, and images were acquired every 2 seconds. […] All the images were analyzed by using IGOR Pro software. […]

[2] = serum, compared to DMSO-treated mice, 7*/15d or 7/15*d
[3] = treated after release of obstruction (7/15*d), Western blot
[4] = treated after the obstruction was released (7/15*d)
[5] = treated during obstruction (7*/15d)
[6] = treated during obstruction (7*/15d), Western blot

Chain of CRAC channel (Q96D31 whole entry): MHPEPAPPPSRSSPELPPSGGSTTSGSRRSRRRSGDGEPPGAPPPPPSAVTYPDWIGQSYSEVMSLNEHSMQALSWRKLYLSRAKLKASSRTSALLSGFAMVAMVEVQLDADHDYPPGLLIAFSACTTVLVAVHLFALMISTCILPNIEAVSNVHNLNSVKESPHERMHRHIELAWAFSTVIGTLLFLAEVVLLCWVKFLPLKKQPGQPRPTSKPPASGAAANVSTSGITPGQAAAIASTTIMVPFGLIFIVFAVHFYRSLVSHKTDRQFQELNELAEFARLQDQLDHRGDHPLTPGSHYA

second peak and rate of SOCE (CRAC channel): significantly reduced
SMILES: CCNS(=O)(=O)c1ccc(COc2ccc3nc4ccc(=O)cc-4oc3c2)cc1 [WRG-28]
expression of DDR2 (immunofluorescence) ([1]; RUUO, compared to the DMSO-treated group): reduced
apical membrane expression of SGLT-2 ([1]; RUUO, immunofluorescence): reversed
atrophic tubules ([1]; RUUO, immunofluorescence): fewer
accumulation of collagen 1a1 (immunofluorescence) ([1]; RUUO, vs DMSO treated group): mitigated
expression of α-SMA (immunofluorescence) ([1]; RUUO, vs DMSO treated group): markedly reduced
level of BUN [1, 2]: significantly reduced
level of CRE [1, 2]: significantly reduced
kidney histology (H&E) ([1]; treated 7 days during ureter obstruction (7*/15d)): preserved the intact tubular structure
kidney histology (H&E) compared to DMSO-treated mice ([1]; treated 13 days after release of obstruction (7/15*d)): numerous intact tubular structures, less inflammation and scar tissue
collagen-positive area (Sirius red) ([1]; treated after release of obstruction (7/15*d)): reduced
downregulation of epithelial marker proteins, E-cadherin, SGLT2 and NHE1 [1, 3]: only partially reversed
obstruction-induced upregulation of integrin β1, DDR2, collagen 1a1, and α-SMA [1, 3]: alleviated
number of apoptotic cells (TUNEL-positive cells) [1, 4]: significantly reduced
numbers of proliferating tubular cells (Ki67-positive cells) [1, 4]: increased
expansion of the fibrotic area (collagen-positive area, Sirius red) [1, 5]: significantly reduced
numbers of proliferating tubular cells (Ki67-positive) [1, 5]: did not significantly differ
proliferating interstitial cells (Ki67) [1, 5]: more proliferating interstitial cells in DMSO treated mice
expression of epithelial markers (E-cadherin, SGLT2, NHE1) [1, 6]: significant increase
expression of mesenchymal marker proteins (integrin β1, DDR2, collagen 1a1, α-SMA) [1, 6]: significantly reduced
apoptotic (TUNEL-positive) tubular cells ([1]; treated during obstruction, obstruction released for 15 days (7*/15d)): only a few
width of the basement membrane (laminin alpha 1 thickness) ([1]; treated during the obstruction (7*/15d) or after its release (7/15*d), immunofluorescence): uniform and unchanging width
